Laboratory results taken from article PMC6197744, “Triazolo[4,5-d]pyrimidines as Validated General Control Nonderepressible 2 (GCN2) Protein Kinase Inhibitors Reduce Growth of Leukemia Cells” (Computational and Structural Biotechnology Journal, 2018).

Tests used:
Assay in all cases: NCI-60 one-dose screen
Type in all cases: cell-based
UACC-257 = conditions: Homo sapiens; Melanoma UACC-257, 10 μM, 48 h; read-out: Percent growth inhibition
Experimental: (§1) Compounds 1 and 2 were submitted to the National Cancer Institute NCI-60 Tumor Cell Screening Program (NCI number 800,700 and 800,701, respectively) for evaluation against the 60 cell line NCI panel at a single dose of 10 μM. […] Leukemia and breast cancer cell lines comprised the only cancer groups that were uniformly sensitive to both 1 and 2, with the greatest sensitivity seen in the leukemia SR cell line.
(§2) Compounds 1 and 2 were submitted to the NCI for growth inhibition screening against its panel of 60 cancer cell lines. The NCI screening protocol has extensively been described [[53], [54], [55], [56]]. Briefly, cancerous cell lines were grown in RPMI 1640 medium containing 5% fetal bovine serum and 2 mM L-glutamine. Depending on the doubling time of each cell line, 5000–40,000 cells were seeded in 96-well plates for 24 h. Cells were then treated with compounds 1 or 2 at a concentration of 10 μM and incubated for 48 h at 37 °C in a humidified atmosphere containing 5% CO2. The cells were then fixed and stained with sulforhodamine B (SRB) to determine their viability. The data were analyzed using a program called COMPARE to determine the percent growth inhibition of each compound.

HOP-92 = conditions: Homo sapiens; Non-Small Cell Lung HOP-92, 10 μM, 48 h; read-out: Percent growth inhibition
Experimental: as §1, §2

NCI/ADR-RES = conditions: Homo sapiens, Ovarian NCI/ADR-RES, 48 h, read-out: Percent growth inhibition
Experimental: as §1, §2

IGROV1 = conditions: Homo sapiens, IGROV-1; Ovarian IGROV1, 10 μM, 48 h; read-out: Percent growth inhibition
Experimental: as §1, §2

NCI-H322M = conditions: Homo sapiens, Non-Small Cell Lung NCI-H322M, 48 h, read-out: Percent growth inhibition
Experimental: as §1, §2

SN12C = conditions: Homo sapiens, Renal SN12C, 48 h, read-out: Percent growth inhibition
Experimental: as §1, §2

CAKI-1 = conditions: Homo sapiens; Renal CAKI-1, 10 μM, 48 h; read-out: Percent growth inhibition
Experimental: as §1, §2

A549 = conditions: Homo sapiens; Non-Small Cell Lung A549, 10 μM, 48 h; read-out: Percent growth inhibition
Experimental: as §1, §2

COLO205 = conditions: Homo sapiens, COLO 205; Colon COLO205, 10 μM, 48 h; read-out: Percent growth inhibition
Experimental: as §1, §2

CCRF-CEM = conditions: Homo sapiens, Leukemia CCRF-CEM, 48 h, read-out: Percent growth inhibition
Experimental: as §1, §2

MDA-MB-231 = conditions: Homo sapiens; Breast MDA-MB-231, 10 μM, 48 h; read-out: Percent growth inhibition
Experimental: as §1, §2

HCT-116 = conditions: Homo sapiens, HCT-116, 48 h, Colon HCT-116, 10 μM, read-out: Percent growth inhibition
Experimental: as §1, §2

SK-MEL-28 = conditions: Homo sapiens; Melanoma SK-MEL-28, 10 μM, 48 h; read-out: Percent growth inhibition
Experimental: as §1, §2

SW-620 = conditions: Homo sapiens; Colon SW-620, 10 μM, 48 h; read-out: Percent growth inhibition
Experimental: as §1, §2

K-562 = conditions: Homo sapiens, K562; Leukemia K-562, 10 μM, 48 h; read-out: Percent growth inhibition
Experimental: as §1, §2

MOLT-4 = conditions: Homo sapiens; Leukemia MOLT-4, 10 μM, 48 h; read-out: Percent growth inhibition
Experimental: as §1, §2

DU-145 = conditions: Homo sapiens; Prostate DU-145, 10 μM, 48 h; read-out: Percent growth inhibition
Experimental: as §1, §2

SR = conditions: Homo sapiens, 48 h, Leukemia SR, read-out: Percent growth inhibition
Experimental: as §1, §2

EKVX = conditions: Homo sapiens, Non-Small Cell Lung EKVX, 48 h, read-out: Percent growth inhibition
Experimental: as §1, §2

NCI-H23 = conditions: Homo sapiens; Non-Small Cell Lung NCI-H23, 10 μM, 48 h; read-out: Percent growth inhibition
Experimental: as §1, §2

MCF7 = conditions: Homo sapiens; Breast MCF7, 10 μM, 48 h; read-out: Percent growth inhibition
Experimental: as §1, §2

TK-10 = conditions: Homo sapiens; Renal TK-10, 10 μM, 48 h; read-out: Percent growth inhibition
Experimental: as §1, §2

SK-OV-3 = conditions: Homo sapiens, SK-OV-3, 48 h, Ovarian SK-OV-3, 10 μM, read-out: Percent growth inhibition
Experimental: as §1, §2

SK-MEL-5 = conditions: Homo sapiens; Melanoma SK-MEL-5, 10 μM, 48 h; read-out: Percent growth inhibition
Experimental: as §1, §2

UACC-62 = conditions: Homo sapiens; Melanoma UACC-62, 10 μM, 48 h; read-out: Percent growth inhibition
Experimental: as §1, §2

HCT-15 = conditions: Homo sapiens; Colon HCT-15, 10 μM, 48 h; read-out: Percent growth inhibition
Experimental: as §1, §2

RPMI-8226 = conditions: Homo sapiens; Leukemia RPMI-8226, 10 μM, 48 h; read-out: Percent growth inhibition
Experimental: as §1, §2

OVCAR-8 = conditions: Homo sapiens; Ovarian OVCAR-8, 10 μM, 48 h; read-out: Percent growth inhibition
Experimental: as §1, §2

BT-549 = conditions: Homo sapiens; Breast BT-549, 10 μM, 48 h; read-out: Percent growth inhibition
Experimental: as §1, §2

Structure (SMILES) | inhibition at 10 µM (UACC-257) [%] | inhibition at 10 µM (HOP-92) [%] | inhibition at 10 µM (NCI/ADR-RES) [%] | inhibition at 10 µM (IGROV1) [%] | inhibition at 10 µM (NCI-H322M) [%] | inhibition at 10 µM (SN12C) [%] | inhibition at 10 µM (CAKI-1) [%] | inhibition at 10 µM (A549) [%] | inhibition at 10 µM (COLO205) [%] | inhibition at 10 µM (CCRF-CEM) [%] | inhibition at 10 µM (MDA-MB-231) [%] | inhibition at 10 µM (HCT-116) [%] | inhibition at 10 µM (SK-MEL-28) [%] | inhibition at 10 µM (SW-620) [%] | inhibition at 10 µM (K-562) [%] | inhibition at 10 µM (MOLT-4) [%] | inhibition at 10 µM (DU-145) [%] | inhibition at 10 µM (SR) [%] | inhibition at 10 µM (EKVX) [%] | inhibition at 10 µM (NCI-H23) [%] | also measured
CCn1cc(Nc2ncc3nnn(-c4ccc(C(=O)OC)cc4)c3n2)cn1 [Compound 1, Methyl 4-(5-((1-ethyl-1H-pyrazol-4-yl)amino)-3H-[1,2,3]triazolo[4,5-d]pyrimidin-3-yl)benzoate] | 13.6 | -8.76 | -8.6 | -16.8 | -3.7 | 1.94 | 1.59 | 18.6 | 16.3 | 39.5 | 0.42 | 42.7 | -4.08 | -5.07 | 20.9 | 21.6 | -9.96 | 43.4 | -4.33 | 3.87 | inhibition at 10 µM (MCF7): 11.6%; inhibition at 10 µM (TK-10): 6.48%; inhibition at 10 µM (SK-OV-3): 22%; inhibition at 10 µM (SK-MEL-5): 40.4%; inhibition at 10 µM (UACC-62): 5.19%; inhibition at 10 µM (HCT-15): 11.2%; inhibition at 10 µM (RPMI-8226): 10.8%; inhibition at 10 µM (OVCAR-8): 13.8%; inhibition at 10 µM (BT-549): 24.2%
CCOc1ccc(-n2nnc3cnc(Nc4cnn(CC)c4)nc32)cc1 [Compound 2, 3-(4-Ethoxyphenyl)-N-(1-ethyl-1H-pyrazol-4-yl)-3H-[1,2,3]triazolo[4,5-d]pyrimidin-5-amine] | 21.3 | -5.76 | 1.5 | 5.39 | -5.07 | 12.5 | 0.05 | 25.2 | 29.9 | 14 | 7.57 | 43.7 | -2.62 | -17.3 | 17.2 | 23.2 | 2.46 | 57.5 | -5.32 | 5.25 | inhibition at 10 µM (MCF7): 24.2%; inhibition at 10 µM (TK-10): 1.47%; inhibition at 10 µM (SK-OV-3): 46.3%; inhibition at 10 µM (SK-MEL-5): 26.4%; inhibition at 10 µM (UACC-62): 1.67%; inhibition at 10 µM (HCT-15): 0.66%; inhibition at 10 µM (RPMI-8226): 17%; inhibition at 10 µM (OVCAR-8): 21.2%; inhibition at 10 µM (BT-549): 16.2%
